Values after ≈ are worked out from the molar mass of the structure shown.
Tests used:
[1] = target: T1, S. aureus ATCC 29213 FabI (Staphylococcus aureus, UniProt Q6GI75); test: Staphylococcus aureus FabI enzyme inhibition assay; format: biochemical; conditions: NADH consumption, 30 minutes, read-out: FabI (300.235) IC50 (converted)
T1 sequence (Q6GI75 1-256): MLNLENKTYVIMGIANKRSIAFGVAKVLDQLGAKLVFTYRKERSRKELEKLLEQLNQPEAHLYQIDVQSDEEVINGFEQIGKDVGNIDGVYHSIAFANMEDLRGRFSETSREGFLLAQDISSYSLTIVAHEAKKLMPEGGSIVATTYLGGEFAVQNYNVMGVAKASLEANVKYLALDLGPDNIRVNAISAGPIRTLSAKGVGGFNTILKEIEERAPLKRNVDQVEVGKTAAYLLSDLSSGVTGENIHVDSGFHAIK
Method: Y.1 FabI Enzyme Inhibition: Staphylococcus aureus FabI Enzyme Inhibition Assay
FabI enzyme inhibition assays were carried out in half-area, 384-well microtitre plates. […] The reaction mixtures were incubated for 30 minutes at room temperature and the reaction was stopped by adding 200 mM Tris buffer (pH 9.0) to create a pH-shift. The consumption of NADH was monitored by measuring the change in absorbance at […]. By comparing sample readings to those of negative (absence of compound) and positive (absence of enzyme) controls, the percent inhibition of enzymatic activity of the compounds was determined A best-fit curve is fitted by a minimum of squares method. From this an IC50-value (expressed in μg/ml), resulting in 50% inhibition of enzymatic activity, was obtained.

[2] = tested on: Staphylococcus aureus ATCC 29213; test: Antibacterial susceptibility testing, IC90 determination (broth microdilution, resazurin); format: cell-based; conditions: Staphylococcus aureus, ATCC29213, S. aureus ATCC 29213; 90% inhibitory concentration for bacterial growth; read-out: STA (361.159) IC90
Method: Y.2 In Vitro Method for Testing Compounds for Antibacterial Activity Against Various Bacterial Strains
Preparation of Bacterial Suspensions for Susceptibility Testing
The following bacteria were used: Staphylococcus aureus ATCC 29213, methicillin-resistant Staphylococcus aureus (MRSA) ATCC 700788 and Escherichia coli ATCC 35218. The bacteria used in this study were grown overnight in flasks containing 100 ml Mueller-Hinton broth (Difco cat. nr. 0757-17) in sterile de-ionized water, with shaking, at 37° C. Stocks were store at −70° C. until use.
Bacteria were incubated on a tryptic soy agar plate containing 5% sheep blood (Becton Dickinson cat. nr. 254053) for 18-24 hours at 35° C. in aerobic conditions (first passage). For the second passage, fresh Mueller-Hinton broth is inoculated with 5-10 colonies and grown overnight at 35° C. until turbidity (reaching log-phase) in aerobic conditions is reached. The bacterial suspension is then adjusted to 0.5 McFarland density and further diluted 1:100 in Mueller Hinton broth medium. This is used as inoculum.
The result(s) are depicted the table below (for STA ATCC 29213).
Antibacterial Susceptibility Testing: IC90 Determination
(§1) MIC assays were performed by the broth microdilution method in a 96-well format (flat-bottom microtitre plates) with a final volume of 0.1 ml Mueller Hinton broth containing two-fold serial dilutions of compounds and inoculated with 5×10^5 CFU/ml of bacteria (standard inoculum size according to CLSI guidelines). Inhibitors are typically varied over the range of 63 to 0.49 μM. The final DMSO concentration in the assay was 1.25% (maximum tolerable DMSO concentration=6%). In the assays where the effect of human serum on the activity of the compounds against S. aureus was tested, human serum was added at a final concentration of 10%. The plates were incubated at 35° C. for 16-20 hours. At the end of incubation the bacterial growth was quantified fluorometrically. For this, resazurin was added to all wells and the plates were re-incubated. The incubation time is dependent on the type of bacteria. A change in color from blue to pink indicated the growth of bacteria. The fluorescence was read in computer-controlled fluorometer (Fluoroskan Ascent FL, Labsystems) at an excitation wavelength 540 nm and an emission wavelength of 590 nm. The % growth inhibition achieved by the compounds was calculated according to standard methods. The IC90 (expressed in μg/ml) was defined as the 90% inhibitory concentration for bacterial growth. A panel of reference compounds were simultaneously tested for QC approval.

S. aureus = test: Antibacterial susceptibility testing, IC90 determination with 10% human serum; format: cell-based, Staphylococcus aureus; conditions: Staphylococcus aureus, S. aureus with human serum at final concentration of 10%; read-out: STA + 10% HS (361.169) IC90
Method: as §1, with “Antibacterial Susceptibility Testing: IC90 Determination MIC” for “MIC”, “approval. The results are depicted in the table(s) below (STA+10% HS).” for “approval.”

Cytotoxicity MTT assay = format: cell-based, Human; conditions: human, HelaM cells, read-out: HELAM (222.125) CC50
Method: Cytotoxicity of the compounds was evaluated using the MTT assay. Human HelaM cells grown in 96-well plates were exposed to serial dilutions of the tested compounds (final volume of 0.2 ml) and incubated for 72 hours at 37° C. and 5% CO2 Inhibitors are typically varied over the range of 25 to 0.8 μM. The final DMSO concentration in the assay is 0.5%. MTT (3-(4,5-Dimethylthiazol-2-yl)-2,5-diphenyltetrazolium bromide, a tetrazole) was added and reduced to purple formazan only in living cells. Solubilization of the formazan crystals was achieved by adding 100 μl 2-propanol. Cell viability was determined by measuring the absorbance of the reduced formazan, giving a purple color, at 540 nm and 690 nm. The absorbance measured at 690 nm was automatically subtracted from the absorbance at 540 nm, to eliminate the effects of non-specific absorption. The percent cytotoxicity achieved by the compounds was calculated according to standard methods. Cytotoxicity is reported as CC50, the concentration that causes a 50% reduction in cell viability.
The results are depicted in the table(s) below (HELAM).

| Compound | IC50 [1] [nM] | IC90 [2] [µg/mL] | IC90 (S. aureus) [µg/mL] | CC50 at 72 h (Cytotoxicity MTT assay) [µg/mL] |
| --- | --- | --- | --- | --- |
| CC1(C(=O)Nc2ccc(/C=C/C(=O)N3CCC=C(c4ccccc4)CC3)cn2)CC1 [compound 15] | ~1070 | 2.84 (≈ 7.07 µM) | 11.8 | 6.59 (≈ 16.4 µM) |
| Nc1ccc(/C=C/C(=O)N2CCC=C(c3ccccc3)CC2)cn1 [compound 23] | 3010 | 13.3 (≈ 41.7 µM) | > 20.1 | 5.3 (≈ 16.6 µM) |
| CC(C)Nc1ccc(/C=C/C(=O)N2CCC=C(c3ccccc3)CC2)cn1 [compound 24] | 5260 | 21 (≈ 58.2 µM) | > 22.8 | > 9.08 |
| CC(C)(C)C(=O)Nc1ccc(/C=C/C(=O)N2CCC=C(c3ccccc3)CC2)cn1 [compound 25] | 2030 | > 25.5 | > 25.5 | 6.32 (≈ 15.7 µM) |
| CC(C)CC(=O)Nc1ccc(/C=C/C(=O)N2CCC=C(c3ccccc3)CC2)cn1 [compound 26] | 1390 | > 25.5 | > 25.5 | 3.77 (≈ 9.34 µM) |
| O=C(Nc1ccc(/C=C/C(=O)N2CCC=C(c3ccccc3)CC2)cn1)c1ccccn1 [compound 27] | 2100 | > 26.8 | > 26.8 | 3.83 (≈ 9.02 µM) |
| O=C(Nc1ccc(/C=C/C(=O)N2CCC=C(c3ccccc3)CC2)cn1)c1cnccn1 [compound 28] | 1200 | > 26.8 | 26.2 | > 10.7 |
| O=C(Nc1ccc(/C=C/C(=O)N2CCC=C(c3ccccc3)CC2)cn1)C1CCCCC1 [compound 29] | 3100 | > 27.1 | > 27.1 | 3.15 (≈ 7.33 µM) |
| O=C(Nc1ccc(/C=C/C(=O)N2CCC=C(c3ccccc3)CC2)cn1)C1CCCO1 (stereo not shown) [compound 30] | ~1760 | 27.7 (≈ 66.3 µM) | 33.3 | 11 (≈ 26.4 µM) |
| CS(=O)(=O)N1CC(=O)Nc2ncc(/C=C/C(=O)N3CCC=C(c4ccccc4)CC3)cc2C1 [compound 37] | 686 | 0.48 (≈ 1.03 µM) | 0.66 | 2.04 (≈ 4.37 µM) |
| CC(=O)N1CC(=O)Nc2ncc(/C=C/C(=O)N3CCC=C(c4ccccc4)CC3)cc2C1 [compound 39] | 743 | 0.51 (≈ 1.18 µM) | 0.75 | > 10.8 |
| O=C1CN(c2ccccc2)Cc2cc(/C=C/C(=O)N3CCC=C(c4ccccc4)CC3)cnc2N1 [compound 42] | ~1510 | 0.77 (≈ 1.66 µM) | 3.33 | 11.7 (≈ 25.1 µM) |
| COc1ccc(F)cc1C1=CCCN(C(=O)/C=C/c2cnc3c(c2)CN2CCN(C(C)=O)CC2C(=O)N3)CC1 (stereo not shown) [compound 48] | 1110 | < 0.26 | 0.46 | > 13.4 |
